{"source": "patent US6500817B1", "about": "“Thiazolyl urea derivatives and their utilization as antiviral agents” (Bayer Aktiengesellschaft, priority 1999, dated 2002)", "key": {"HSV-1 F": {"test_system": "HSV-1 F", "test": "anti-HSV screening test (cytopathogenic effect, fluorescein diacetate fluorescence readout) in Vero cells", "assay_type": "cell-based", "settings": "Human alphaherpesvirus 1, Vero, read-out: IC50 HSV-1 F/Vero", "procedure": "(§1) HSV (HSV-1 Walki, HSV-1F or HSV-2G) was replicated on Vero cells (ATCC CCL-81) under the following conditions: the cells were grown in M199 medium (5% fetal calf serum, 2 mM glutamine, 100 IU/ml penicillin, 100 μg/ml streptomycin) in cell culture bottles at 37° C. and 5% CO2. The cells were split 1:4 on each of two occasions each week. For the infection, the medium was removed, and the cells were washed with Hank's solution, detached with 0.05% trypsin, 0.02% EDTA (Seromed L2143) and incubated at a density of 4×10^5 cells per ml under the conditions mentioned above for 24 hours. The medium was then removed, and the virus solution was added at an m.o.i. of <0.05 in a volume of 2 ml per 175 cm^2 of surface area. After incubation under the conditions mentioned for one hour, the medium was made up to a volume of 50 ml per 175 cm^2 bottle. […] The virus was released by freezing (−80° C.) and thawing (37° C.) twice. The cell debris was removed by centrifugation (300 g, 10 min, 4° C.) and the supernatant was frozen in aliquots at −80° C.\n(§2) The anti-HSV effect was determined in a screening test system in 96-well microtitre plates with the assistance of various cell lines of neuronal, lymphoid and epithelial origin, such as, for example, Vero (African green monkey kidney cell line), MEF (murine embryonic fibroblasts), HELF (human embryonic fibroblasts), NT2 (human neuronal cell line) or Jurkat (human lymphoid T-cell line).\n(§3) The substances dissolved (50 mM) in DMSO (dimethyl sulphoxide) are investigated on microtitre plates (for example 96-well MTP) in final concentrations of 250-0.5 μM (micromolar) in duplicate determinations (4 substances/plate). For potent substances, the dilutions are continued over several plates as far as 0.5 pM (picomolar). Toxic and cytostatic effects of the substance are also recorded. After the appropriate dilutions of the substance (1:2) on the microtitre plate, a suspension of cells (1×10^4 cells per well) such as, for example, Vero cells in M199 (medium 199) with 5% fetal calf serum, 2 mM glutamine and optionally 100 IU/ml penicillin and 100 μg/ml streptomycin or MEF cells in EMEM (Eagle's minimum essential medium) with 10% fetal calf serum, 2 mM glutamine and optionally 100 IU/ml penicillin and 100 μg/ml streptomycin, or HELF cells in EMEM with 10% fetal calf serum, 2 mM glutamine and optionally 100 IU/ml penicillin and 100 μg/ml streptomycin, or NT2 and Jurkat cells in DMEM ([…] glucose plus pyridoxine) with 10% fetal calf serum, 2 mM glutamine, 1 mM sodium pyruvate, nonessential amino acids and optionally 100 IU/ml penicillin and 100 μg/ml streptomycin is put in each well, and the cells in the relevant wells are infected with an appropriate amount of virus (HSV-1 F or HSV-2 G with an m.o.i (multiplicity of infection) of 0.0025 for HELF, Vero and MEF cells and with an m.o.i of 0.1 for NT2 and Jurkat cells). The plates are then incubated at 37° C. in a CO2 incubator (5% CO2) for several days. […] The plates are initially evaluated optically using a microscope and then analysed with a fluorescent dye. For this purpose, the cell culture supernatant is aspirated out of all the wells of the MTP and charged with 200 μl of PBS washing solution."}, "HSV-2 G": {"test_system": "HSV-2 G", "test": "anti-HSV screening test (cytopathogenic effect, fluorescein diacetate fluorescence readout) in Vero cells", "assay_type": "cell-based", "settings": "Human alphaherpesvirus 2, Vero, read-out: IC50 HSV-2 G/Vero", "procedure": "as §1, §2, §3"}, "HSV": {"test_system": "HSV", "test": "in vivo effect: survival of intranasally HSV-infected mice", "parameters": "species or system strain BALB/cABom", "settings": "Mus musculus; female BALB/cABom mice, intranasal infection 5×10^4 pfu; treatment from 6 hours after infection, 3 times a day for 5 days; from graphs of survival; read-out: ED50 (50% of the animals survive at this dose)", "procedure": "6-week old female mice, strain BALB/cABom, were purchased from a commerical breeder (Bomholtgard Breeding and Research Centre Ltd.).\nThe animals were anaesthetized with diethyl ether (Merck) in a sealed glass vessel. 50 μl of a dilution of the virus stock (infectious dose 5×10^4 pfu) were introduced into the nose of the anaesthetized animals with an Eppendorf pipette. This infectious dose leads to death of 90-100% of the animals after an average of between 5 and 8 days due to a generalized infection with prominent respiratory and central nervous symptoms.\n6 hours after the infection, the animals were treated with doses of 0.1-100 mg/kg of body weight 3 times a day at 7.00 h, 14.00 h and 19 h over a period of 5 days. The substances were dissolved in DMSO and resuspended in Tylose/PBS (Hoechst) (final concentration 1.5% DMSO, 0.5% Tylose in PBS).\nAfter the last administration, the animals were observed further and the times of death were recorded."}}, "data": [{"smiles": "CNS(=O)(=O)c1sc(N(C)C(=O)Nc2ccc(N3CCOCC3)cc2)nc1C", "note": "[Example 43]", "values": [{"measurement": "IC50", "setting": "HSV-1 F", "result": 0.5, "unit": "µM"}, {"measurement": "IC50", "setting": "HSV-2 G", "result": 1.5, "unit": "µM"}, {"measurement": "ED50", "setting": "HSV", "result": "30 to 40", "unit": "mg/kg"}]}]}
